According to BindingDB's records for doi:10.7270/Q2SN07DK (Burnham Center For Chemical Genomics, 2010):

Target: Beta-galactosidase (Escherichia coli, UniProt Q8VNN2)
Experiment: PubChem AID 485352

Chain of Beta-galactosidase (Q8VNN2 whole entry): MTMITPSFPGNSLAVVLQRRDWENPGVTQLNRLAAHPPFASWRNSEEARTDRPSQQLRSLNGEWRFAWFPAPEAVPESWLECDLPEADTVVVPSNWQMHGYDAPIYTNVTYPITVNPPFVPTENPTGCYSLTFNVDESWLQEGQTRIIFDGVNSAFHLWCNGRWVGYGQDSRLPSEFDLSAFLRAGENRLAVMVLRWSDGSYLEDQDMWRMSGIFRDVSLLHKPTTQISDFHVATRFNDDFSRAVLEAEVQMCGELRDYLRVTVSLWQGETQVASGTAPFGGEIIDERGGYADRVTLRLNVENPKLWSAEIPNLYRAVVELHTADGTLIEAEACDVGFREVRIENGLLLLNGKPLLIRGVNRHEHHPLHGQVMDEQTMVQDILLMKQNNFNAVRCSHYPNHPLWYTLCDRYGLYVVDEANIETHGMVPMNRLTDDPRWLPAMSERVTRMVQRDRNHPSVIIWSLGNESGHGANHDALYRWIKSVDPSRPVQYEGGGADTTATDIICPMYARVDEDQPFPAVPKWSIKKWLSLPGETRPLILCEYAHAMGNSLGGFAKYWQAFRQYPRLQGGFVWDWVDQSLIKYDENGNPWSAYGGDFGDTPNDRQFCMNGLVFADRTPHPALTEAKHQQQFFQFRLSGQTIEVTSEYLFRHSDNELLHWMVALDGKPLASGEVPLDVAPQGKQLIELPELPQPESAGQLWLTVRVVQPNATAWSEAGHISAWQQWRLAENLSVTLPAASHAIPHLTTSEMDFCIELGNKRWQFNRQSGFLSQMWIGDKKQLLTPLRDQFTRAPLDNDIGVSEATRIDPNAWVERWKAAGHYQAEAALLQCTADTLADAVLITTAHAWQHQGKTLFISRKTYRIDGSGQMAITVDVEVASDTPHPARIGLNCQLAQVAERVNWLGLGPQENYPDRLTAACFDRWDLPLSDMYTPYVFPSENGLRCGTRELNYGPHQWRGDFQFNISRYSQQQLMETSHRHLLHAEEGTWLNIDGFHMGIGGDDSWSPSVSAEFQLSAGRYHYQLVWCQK

EC50: 39.3 µM
Compound: CCOC(=O)C1C(C)=NC2=C(C(=O)CC(c3cccs3)C2)C1c1cccs1 (stereo unspecified) [2-Methyl-5-oxo-4,7-di-thiophen-2-yl-1,4,5,6,7,8-hexahydro-quinoline-3-carboxylic acid ethyl ester]
